Assay results reported in US9833497B2, “Human originated EGF domain proteins and use of the same” (CHENGDU SOURCEBIO LIMITED-LIABILITY COMPANY, priority 2013, dated 2017).

Legend:
Assay type in all cases: cell-based
Pseudomonas aeruginosa = experiment: MIC against Gram-negative bacteria: Pseudomonas aeruginosa; conditions: for MIC / MIC (μg/mL) P. aeruginosa: P. aeruginosa
How it was run: (§1)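 The recombinant human-originated EGF domain proteins were serially diluted two-fold against bacteria at 5×10^5 CFU/mL in LB medium. After shaken incubation at 37° C, the lowest concentration with no bacterial growth was recorded as the MIC.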

Klebsiella pneumonia = experiment: MIC against Gram-negative bacteria: Klebsiella pneumonia; conditions: for MIC / MIC (μg/mL) K. pneumonia: K. pneumonia
How it was run: as §1

E. coli DH5α = experiment: Antibacterial activity: MIC and growth curve against E. coli DH5α in 96-well plate; conditions: minimal inhibitory concentration against E. coli DH5α; 96-well plate, 5×10^5 CFU/mL, 37° C., judged after 8 h
How it was run: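 MIC taken as lowest protein level with no bacterial growth, tracked by A600 every 30 min during 37 °C, 175 rpm culture. Two-fold protein series 50-12.5 μg/mL final, triplicate wells, against 5×10^5 CFU/mL of LB-washed mid-log cells.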

Serratia marcescens = experiment: MIC against Gram-negative bacteria: Serratia marcescens; conditions: for MIC / MIC (μg/mL) S. marcescens: S. marcescens
How it was run: as §1

Aeromonas hydrophila = experiment: MIC against Gram-negative bacteria: Aeromonas hydrophila; conditions: for MIC / MIC (μg/mL) A. hydrophila: A. hydrophila
How it was run: as §1

E. coli BL21 = experiment: MIC against Gram-negative bacteria: E. coli BL21
How it was run: as §1

Proteus vulgaris = experiment: MIC against Gram-negative bacteria: Proteus vulgaris; conditions: for MIC / MIC (μg/mL) P. vulgaris: P. vulgaris
How it was run: as §1

Proteus mirabilis = experiment: MIC against Gram-negative bacteria: Proteus mirabilis; conditions: for MIC / MIC (μg/mL) P. mirabilis: P. mirabilis
How it was run: as §1

Enterobacter cloacae = experiment: MIC against Gram-negative bacteria: Enterobacter cloacae; conditions: for MIC / MIC (μg/mL) E. cloacae: E. cloacae
How it was run: as §1

Citrobacter diversus = experiment: MIC against Gram-negative bacteria: Citrobacter diversus; conditions: for MIC / MIC (μg/mL) C. diversus: C. diversus
How it was run: as §1

Moraxella catarrhalis = experiment: MIC against Gram-negative bacteria: Moraxella catarrhalis; conditions: for MIC / MIC (μg/mL) M. catarrhalis: M. catarrhalis
How it was run: as §1

[1] = 10 h cultivation at 37° C., 5×10^5 CFU/mL
[2] = E. coli BL21, 10 h cultivation at 37° C., 5×10^5 CFU/mL
[3] = 96-well plate, 5×10^5 CFU/mL, 37° C., 10 h
[4] = 10 h cultivation at 37° C., 5×10^5 CFU/mL, two-fold serial dilution

Substance: PRT1451 (EARWCSECHSNATCTEDEAVTTCTCQEGFTGDGLTCV; listed as Homo sapiens)
- MIC against P. aeruginosa (Pseudomonas aeruginosa; Pseudomonas aeruginosa, 5×10^5 CFU/mL, 10 h cultivation at 37° C.): 25 µg/mL
- MIC against K. pneumonia (Klebsiella pneumonia; Klebsiella pneumonia, 5×10^5 CFU/mL, 10 h cultivation at 37° C.): 12.5 µg/mL
- MIC (E. coli DH5α): 25 µg/mL
- MIC against S. marcescens (Serratia marcescens; Serratia marcescens, 5×10^5 CFU/mL, 10 h cultivation at 37° C.): 12.5 µg/mL
- MIC against A. hydrophila (Aeromonas hydrophila; Aeromonas hydrophila, 5×10^5 CFU/mL, 10 h cultivation at 37° C.): 12.5 µg/mL
- MIC against E. coli BL21 (E. coli BL21; E. coli BL21, 5×10^5 CFU/mL, 10 h cultivation at 37° C.): 12.5 µg/mL
- MIC against P. vulgaris (Proteus vulgaris; Proteus vulgaris, 5×10^5 CFU/mL, 10 h cultivation at 37° C.): 12.5 µg/mL
- MIC against P. mirabilis (Proteus mirabilis; Proteus mirabilis, 5×10^5 CFU/mL, 10 h cultivation at 37° C.): 12.5 µg/mL
- MIC against E. cloacae (Enterobacter cloacae; Enterobacter cloacae, 5×10^5 CFU/mL, 10 h cultivation at 37° C.): 25 µg/mL
- MIC against C. diversus (Citrobacter diversus; Citrobacter diversus, 5×10^5 CFU/mL, 10 h cultivation at 37° C.): 25 µg/mL
- MIC against M. catarrhalis (Moraxella catarrhalis; Moraxella catarrhalis, 5×10^5 CFU/mL, 10 h cultivation at 37° C.): 12.5 µg/mL

Substance: PRT1037 (DCSRPCPPGRQKSPRDPCQCVCHGSAVTTQDCC; listed as Homo sapiens)
- MIC (Pseudomonas aeruginosa; 10 h cultivation at 37° C.): 50 µg/mL
- MIC (Klebsiella pneumonia; 10 h cultivation at 37° C.): 12.5 µg/mL
- MIC (E. coli DH5α): 12.5 µg/mL
- MIC (Serratia marcescens; 10 h cultivation at 37° C.): 50 µg/mL
- MIC (Aeromonas hydrophila; 10 h cultivation at 37° C.): 25 µg/mL
- MIC (E. coli BL21; E. coli BL21, 10 h cultivation at 37° C.): 50 µg/mL
- MIC (Proteus vulgaris; 10 h cultivation at 37° C.): 50 µg/mL
- MIC (Proteus mirabilis; 10 h cultivation at 37° C.): 12.5 µg/mL
- MIC (Enterobacter cloacae; 10 h cultivation at 37° C.): 25 µg/mL
- MIC (Citrobacter diversus; 10 h cultivation at 37° C.): 50 µg/mL
- MIC (Moraxella catarrhalis; 10 h cultivation at 37° C.): 25 µg/mL

Substance: PRT216 (DIDECTAGTHNCRADQVCINLRGSFACQCPPGYQKRGEQCV; listed as Homo sapiens)
- MIC (μg/mL) P. aeruginosa (Pseudomonas aeruginosa; [1]): 12.5 µg/mL
- MIC (μg/mL) K. pneumonia (Klebsiella pneumonia; [1]): 50 µg/mL
- MIC (E. coli DH5α): 12.5 µg/mL
- MIC (μg/mL) S. marcescens (Serratia marcescens; [1]): 25 µg/mL
- MIC (μg/mL) A. hydrophila (Aeromonas hydrophila; [1]): 50 µg/mL
- MIC (μg/mL) E. coli BL21 (E. coli BL21; [2]): 12.5 µg/mL
- MIC (μg/mL) P. vulgaris (Proteus vulgaris; [1]): 12.5 µg/mL
- MIC (μg/mL) P. mirabilis (Proteus mirabilis; [1]): 25 µg/mL
- MIC (μg/mL) E. cloacae (Enterobacter cloacae; [1]): 12.5 µg/mL
- MIC (μg/mL) C. diversus (Citrobacter diversus; [1]): 12.5 µg/mL
- MIC (μg/mL) M. catarrhalis (Moraxella catarrhalis; [1]): 50 µg/mL

Substance: PRT639 (DADECLLFGQEICKNGFCLNTRPGYECYCKQGTYYDPVKLQCF; listed as Homo sapiens)
- MIC P. aeruginosa (Pseudomonas aeruginosa; [3]): 12.5 µg/mL
- MIC K. pneumonia (Klebsiella pneumonia; [3]): 50 µg/mL
- MIC (E. coli DH5α): 12.5 µg/mL
- MIC S. marcescens (Serratia marcescens; [3]): 25 µg/mL
- MIC A. hydrophila (Aeromonas hydrophila; [3]): 50 µg/mL
- MIC E. coli BL21 (E. coli BL21; [3]): 50 µg/mL
- MIC P. vulgaris (Proteus vulgaris; [3]): 50 µg/mL
- MIC P. mirabilis (Proteus mirabilis; [3]): 25 µg/mL
- MIC E. cloacae (Enterobacter cloacae; [3]): 12.5 µg/mL
- MIC C. diversus (Citrobacter diversus; [3]): 25 µg/mL
- MIC M. catarrhalis (Moraxella catarrhalis; [3]): 12.5 µg/mL

Substance: PRT423 (QPNTCKDNGPCKQVCSTVGGSAICSCFPGYAIMADGVSCE; listed as Homo sapiens)
- MIC (Pseudomonas aeruginosa; [1]): 12.5 µg/mL
- MIC (Klebsiella pneumonia; [1]): 25 µg/mL
- MIC (E. coli DH5α): 12.5 µg/mL
- MIC (Serratia marcescens; [1]): 12.5 µg/mL
- MIC (Aeromonas hydrophila; [1]): 25 µg/mL
- MIC (E. coli BL21; [2]): 25 µg/mL
- MIC (Proteus vulgaris; [1]): 25 µg/mL
- MIC (Proteus mirabilis; [1]): 50 µg/mL
- MIC (Enterobacter cloacae; [1]): 50 µg/mL
- MIC (Citrobacter diversus; [1]): 12.5 µg/mL
- MIC (Moraxella catarrhalis; [1]): 25 µg/mL

Substance: PRT773 (PSNPCQDDPCADNSLCVKLHNTSFCLCLEGYYYNSSTCK; listed as Homo sapiens)
- MIC (μg/mL) P. aeruginosa (Pseudomonas aeruginosa; [1]): 12.5 µg/mL
- MIC (μg/mL) K. pneumonia (Klebsiella pneumonia; [1]): 50 µg/mL
- MIC (E. coli DH5α): 50 µg/mL
- MIC (μg/mL) S. marcescens (Serratia marcescens; [1]): 12.5 µg/mL
- MIC (μg/mL) A. hydrophila (Aeromonas hydrophila; [1]): 50 µg/mL
- MIC (μg/mL) E. coli BL21 (E. coli BL21; [2]): 25 µg/mL
- MIC (μg/mL) P. vulgaris (Proteus vulgaris; [1]): 50 µg/mL
- MIC (μg/mL) P. mirabilis (Proteus mirabilis; [1]): 12.5 µg/mL
- MIC (μg/mL) E. cloacae (Enterobacter cloacae; [1]): 12.5 µg/mL
- MIC (μg/mL) C. diversus (Citrobacter diversus; [1]): 12.5 µg/mL
- MIC (μg/mL) M. catarrhalis (Moraxella catarrhalis; [1]): 50 µg/mL

Substance: PRT1092 (ILLGCTHQQCLNNGTCIPHFQDGQHGFSCLCPSGYTGSLCE; listed as Homo sapiens)
- MIC P. aeruginosa (Pseudomonas aeruginosa; [4]): 25 µg/mL
- MIC K. pneumonia (Klebsiella pneumonia; [4]): 12.5 µg/mL
- MIC (E. coli DH5α): 25 µg/mL
- MIC S. marcescens (Serratia marcescens; [4]): 25 µg/mL
- MIC A. hydrophila (Aeromonas hydrophila; [4]): 12.5 µg/mL
- MIC E. coli BL21 (E. coli BL21; [4]): 50 µg/mL
- MIC P. vulgaris (Proteus vulgaris; [4]): 25 µg/mL
- MIC P. mirabilis (Proteus mirabilis; [4]): 50 µg/mL
- MIC E. cloacae (Enterobacter cloacae; [4]): 25 µg/mL
- MIC C. diversus (Citrobacter diversus; [4]): 12.5 µg/mL
- MIC M. catarrhalis (Moraxella catarrhalis; [4]): 25 µg/mL

Substance: PRT1083 (GTNVCAVANGGCQQLCLYRGRGQRACACAHGMLAEDGASCR; listed as Homo sapiens)
- MIC P. aeruginosa (Pseudomonas aeruginosa; [4]): 50 µg/mL
- MIC K. pneumonia (Klebsiella pneumonia; [4]): 50 µg/mL
- MIC (E. coli DH5α): 50 µg/mL
- MIC S. marcescens (Serratia marcescens; [4]): 25 µg/mL
- MIC A. hydrophila (Aeromonas hydrophila; [4]): 25 µg/mL
- MIC E. coli BL21 (E. coli BL21; [4]): 12.5 µg/mL
- MIC P. vulgaris (Proteus vulgaris; [4]): 50 µg/mL
- MIC P. mirabilis (Proteus mirabilis; [4]): 25 µg/mL
- MIC E. cloacae (Enterobacter cloacae; [4]): 50 µg/mL
- MIC C. diversus (Citrobacter diversus; [4]): 12.5 µg/mL
- MIC M. catarrhalis (Moraxella catarrhalis; [4]): 50 µg/mL

Substance: PRT705 (LDDSCKLTCENGGRCILNEKGDLRCHCWPSYSGE; listed as Homo sapiens)
- MIC P. aeruginosa (Pseudomonas aeruginosa; [3]): 12.5 µg/mL
- MIC K. pneumonia (Klebsiella pneumonia; [3]): 50 µg/mL
- MIC (E. coli DH5α): 25 µg/mL
- MIC S. marcescens (Serratia marcescens; [3]): 50 µg/mL
- MIC A. hydrophila (Aeromonas hydrophila; [3]): 25 µg/mL
- MIC E. coli BL21 (E. coli BL21; [3]): 50 µg/mL
- MIC P. vulgaris (Proteus vulgaris; [3]): 12.5 µg/mL
- MIC P. mirabilis (Proteus mirabilis; [3]): 50 µg/mL
- MIC E. cloacae (Enterobacter cloacae; [3]): 12.5 µg/mL
- MIC C. diversus (Citrobacter diversus; [3]): 100 µg/mL
- MIC M. catarrhalis (Moraxella catarrhalis; [3]): 25 µg/mL

Substance: PRT736 (DVNECAEEGYCSQGCTNSEGAFQCWCETGYELRPDRRSCK; listed as Homo sapiens)
- MIC P. aeruginosa (Pseudomonas aeruginosa; [3]): 50 µg/mL
- MIC K. pneumonia (Klebsiella pneumonia; [3]): 50 µg/mL
- MIC (E. coli DH5α): 12.5 µg/mL
- MIC S. marcescens (Serratia marcescens; [3]): 50 µg/mL
- MIC A. hydrophila (Aeromonas hydrophila; [3]): 25 µg/mL
- MIC E. coli BL21 (E. coli BL21; [3]): 25 µg/mL
- MIC P. vulgaris (Proteus vulgaris; [3]): 25 µg/mL
- MIC P. mirabilis (Proteus mirabilis; [3]): 12.5 µg/mL
- MIC E. cloacae (Enterobacter cloacae; [3]): 50 µg/mL
- MIC C. diversus (Citrobacter diversus; [3]): 12.5 µg/mL
- MIC M. catarrhalis (Moraxella catarrhalis; [3]): 25 µg/mL

Substance: PRT181 (RADPCAARPCAHGGRCYAHFSGLVCACAPGYMGARCE; listed as Homo sapiens)
- MIC (μg/mL) P. aeruginosa (Pseudomonas aeruginosa; [1]): 25 µg/mL
- MIC (μg/mL) K. pneumonia (Klebsiella pneumonia; [1]): 12.5 µg/mL
- MIC (E. coli DH5α): 25 µg/mL
- MIC (μg/mL) S. marcescens (Serratia marcescens; [1]): 25 µg/mL
- MIC (μg/mL) A. hydrophila (Aeromonas hydrophila; [1]): 50 µg/mL
- MIC (μg/mL) E. coli BL21 (E. coli BL21; [2]): 50 µg/mL
- MIC (μg/mL) P. vulgaris (Proteus vulgaris; [1]): 50 µg/mL
- MIC (μg/mL) P. mirabilis (Proteus mirabilis; [1]): 25 µg/mL
- MIC (μg/mL) E. cloacae (Enterobacter cloacae; [1]): 25 µg/mL
- MIC (μg/mL) C. diversus (Citrobacter diversus; [1]): 25 µg/mL
- MIC (μg/mL) M. catarrhalis (Moraxella catarrhalis; [1]): 12.5 µg/mL
